For 18 molecules, IC50 results are on record in patent US10364245B2 (CHIESI FARMACEUTICI S.p.A., priority 2017, dated 2019).

The structures appear in SMILES notation. Counter-ions that a name gives are not always drawn.

Experiment [1] relates to Peripheral Blood Mononuclear Cells (PBMCs), TNFα release. Nature of the experiment: LPS-stimulated PBMC TNFα release assay. In kind it is cell-based. The note with it: human PBMC, LPS (10 ng/ml), 18 h, compound 1 h before LPS; read-out: LPS-stimulated PBMC TNFα release inhibition. As for the experimental part: LPS-Stimulated PBMC TNFα Release Assay
Peripheral Blood Mononuclear Cells (PBMCs) were isolated from healthy human volunteer blood using a standard density gradient centrifugation technique. Citrated blood was placed onto Histopaque™ and centrifuged. The PBMCs were removed from the density gradient interface and washed in phosphate buffered saline (PBS). The PBMCs were suspended in RPMI 1640 medium (without serum), dispensed into a 96-well plate and incubated at 37° C. for 3 h in a humidified incubator. After incubation, the medium was replaced (with medium containing 1% foetal bovine serum) and the plate incubated at 37° C., for 1 h, in the presence of test compound or the appropriate vehicle. LPS (10 ng/ml), or an appropriate vehicle control, was then added to the cells and the plate returned to the incubator for 18 h. Cell-free supernatants were removed and assayed for TNFα levels using MSD plates on the Sector Imager 6000 (MesoScale).
A dose response curve to each test compound was performed and the effect of compound in each experiment was expressed as a percentage inhibition of the control TNFα release. Dose response curves were plotted and compound potency (IC50) was determined. Compounds were tested in at least three separate experiments.

Another experiment concerns the target T1, p38 alpha (Homo sapiens, UniProt Q16539).
T1 construct: purchased Invitrogen PV3304
Nature of the experiment: P38 alpha enzyme inhibition assay (Alphascreen kinase activity assay). In kind it is biochemical. The following applies: 100 pM p38 alpha, 2 hours preincubation at 25° C., 250 μM ATP, ATF-2 fusion protein; read-out: p38α inhibition. In short, it runs like this: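 Phosphorylation of ATF-2 fusion protein (0.3 μg/ml) read by AlphaScreen with anti-phospho-ATF2 antibody after 1 h kinase reaction at 25 °C, initiated by 250 μM ATP. Compounds first incubated 2 h at 25 °C with 100 pM p38 alpha in pH 7.5 HEPES buffer, 1% DMSO. IC50 derived from concentration-response data.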

T1 sequence (Q16539 whole entry): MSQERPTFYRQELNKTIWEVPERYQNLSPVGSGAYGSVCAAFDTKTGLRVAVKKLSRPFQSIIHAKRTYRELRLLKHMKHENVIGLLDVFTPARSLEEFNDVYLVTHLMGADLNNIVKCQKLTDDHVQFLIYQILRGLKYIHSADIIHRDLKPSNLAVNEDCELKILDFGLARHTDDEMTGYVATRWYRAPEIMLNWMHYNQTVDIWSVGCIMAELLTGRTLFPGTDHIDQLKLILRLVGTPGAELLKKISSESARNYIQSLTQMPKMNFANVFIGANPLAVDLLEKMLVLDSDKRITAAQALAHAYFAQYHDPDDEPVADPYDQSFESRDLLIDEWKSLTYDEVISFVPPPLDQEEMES

For `CN1CCC[C@@]1(C)c1nnc2ccc(O[C@@H]3CC[C@H](NC(=O)Nc4cc(C(C)(C)C)nc(NS(C)(=O)=O)n4)c4ccccc43)cn12` [Example 30, N-(4-(tert-Butyl)-6-(3-((1S,4R)-4-((3-((S)-1,2-dimethylpyrrolidin-2-yl)-[1,2,4]triazolo[4,3-a]pyridin-6-yl)oxy)-1,2,3,4-tetrahydronaphthalen-1-yl)ureido)pyrimidin-2-yl)methanesulfonamide], the IC50 in experiment [1] fell in the range of 1 to 5 nM; at p38 alpha it was 1 to 10 nM.

Regarding `CN(C)CCNC(=O)c1nc(NC(=O)N[C@H]2CC[C@@H](Oc3ccc4nnc(C5(C)CC5)n4c3)c3ccccc32)cc(C(C)(C)C)n1` [Example 32, 4-(tert-Butyl)-N-(2-(dimethylamino)ethyl)-6-(3-((1S,4R)-4-((3-(1-methylcyclopropyl)-[1,2,4]triazolo[4,3-a]pyridin-6-yl)oxy)-1,2,3,4-tetrahydronaphthalen-1-yl)ureido)pyrimidine-2-carboxamide], the IC50 in experiment [1] is greater than 5 nM; at p38 alpha it was less than 1 nM.

Turning to `CN(C)CCNC(=O)c1nc(NC(=O)N[C@H]2CC[C@@H](Oc3ccc4nnc([C@]5(C)CCCN5)n4c3)c3ccccc32)cc(C(C)(C)C)n1` [Example 34, 4-(tert-Butyl)-N-(2-(dimethylamino)ethyl)-6-(3-((1S,4R)-4-((3-((S)-2-methylpyrrolidin-2-yl)-[1,2,4]triazolo[4,3-a]pyridin-6-yl)oxy)-1,2,3,4-tetrahydronaphthalen-1-yl)ureido)pyrimidine-2-carboxamide], the values for the IC50 (in experiment [1]; on p38 alpha) were greater than 5 nM and 1 to 10 nM, respectively.

As for `COc1ncc(C(C)(C)C)cc1NC(=O)N[C@H]1CC[C@@H](Oc2ccc3nnc([C@@H]4CCCN4C)n3c2)c2ccccc21` [Example 35, 1-(5-(tert-Butyl)-2-methoxypyridin-3-yl)-3-((1S,4R)-4-((3-((S)-1-methylpyrrolidin-2-yl)-[1,2,4]triazolo[4,3-a]pyridin-6-yl)oxy)-1,2,3,4-tetrahydronaphthalen-1-yl)urea hydrochloride Salt], the IC50 (in experiment [1]; on p38 alpha) was less than 1 nM each time.

With `CCOC(=O)c1nc(NC(=O)N[C@H]2CC[C@@H](Oc3ccc4nnc([C@]5(C)CCCN5C)n4c3)c3ccccc32)cc(C(C)(C)C)n1` [Example 36, Ethyl 4-(tert-butyl)-6-(3-((1S,4R)-4-((3-((S)-1,2-dimethylpyrrolidin-2-yl)-[1,2,4]triazolo[4,3-a]pyridin-6-yl)oxy)-1,2,3,4-tetrahydronaphthalen-1-yl)ureido)pyrimidine-2-carboxylate], the results for the IC50 (in experiment [1]; at p38 alpha) were less than 1 nM and 1 to 10 nM, respectively.

With `C[C@H]1CCCCN1c1nnc2ccc(O[C@@H]3CC[C@H](NC(=O)Nc4cc(C(C)(C)C)nc(C(=O)NCCN(C)C)n4)c4ccccc43)cn12` [Example 37, 4-(tert-Butyl)-N-(2-(dimethylamino)ethyl)-6-(3-((1S,4R)-4-((3-((S)-2-methylpiperidin-1-yl)-[1,2,4]triazolo[4,3-a]pyridin-6-yl)oxy)-1,2,3,4-tetrahydronaphthalen-1-yl)ureido)pyrimidine-2-carboxamide], the figures for the IC50 (in experiment [1]; on p38 alpha) were greater than 5 nM and less than 1 nM, respectively.

For the molecule `CNC(=O)c1nc(NC(=O)N[C@H]2CC[C@@H](Oc3ccc4nnc([C@]5(C)CCCN5C)n4c3)c3ccccc32)cc(C(C)(C)C)n1` [Example 38, 4-(tert-Butyl)-6-(3-((1S,4R)-4-((3-((S)-1,2-dimethylpyrrolidin-2-yl)-[1,2,4]triazolo[4,3-a]pyridin-6-yl)oxy)-1,2,3,4-tetrahydronaphthalen-1-yl)ureido)-N-methylpyrimidine-2-carboxamide], the IC50 (in experiment [1]; on p38 alpha) was less than 1 nM throughout.

In the case of `CN1CCC[C@]1(C)c1nnc2ccc(O[C@@H]3CC[C@H](NC(=O)Nc4cc(C(C)(C)C)cc(C#N)n4)c4ccccc43)cn12` [Example 39, 1-(4-(tert-Butyl)-6-cyanopyridin-2-yl)-3-((1S,4R)-4-((3-((R)-1,2-dimethylpyrrolidin-2-yl)-[1,2,4]triazolo[4,3-a]pyridin-6-yl)oxy)-1,2,3,4-tetrahydronaphthalen-1-yl)urea], the IC50 in experiment [1] is less than 1 nM; at p38 alpha, 1 to 10 nM.

For `Cc1nc(NC(=O)N[C@H]2CC[C@@H](Oc3ccc4nnc([C@]5(C)CCCN5C)n4c3)c3ccccc32)cc(C(C)(C)C)n1` [Example 40, 1-(6-(tert-Butyl)-2-methylpyrimidin-4-yl)-3-((1S,4R)-4-((3-((S)-1,2-dimethylpyrrolidin-2-yl)-[1,2,4]triazolo[4,3-a]pyridin-6-yl)oxy)-1,2,3,4-tetrahydronaphthalen-1-yl)urea], the results for the IC50 (in experiment [1]; at p38 alpha) were 1 to 5 nM and less than 1 nM, respectively.

With `COCc1nc(NC(=O)N[C@H]2CC[C@@H](Oc3ccc4nnc([C@]5(C)CCCN5C)n4c3)c3ccccc32)cc(C(C)(C)C)n1` [Example 43, 1-(6-(tert-Butyl)-2-(methoxymethyl)pyrimidin-4-yl)-3-((1S,4R)-4-((3-((S)-1,2-dimethylpyrrolidin-2-yl)-[1,2,4]triazolo[4,3-a]pyridin-6-yl)oxy)-1,2,3,4-tetrahydronaphthalen-1-yl)urea], the IC50 fell in the range of 1 to 5 nM in experiment [1] and 1 to 10 nM on p38 alpha.

Take `CN1CCC[C@@]1(C)c1nnc2ccc(O[C@@H]3CC[C@H](NC(=O)Nc4cc(C(C)(C)C)ccn4)c4ccccc43)cn12` [Example 44, 1-(4-(tert-Butyl)pyridin-2-yl)-3-((1S,4R)-4-((3-((S)-1,2-dimethylpyrrolidin-2-yl)-[1,2,4]triazolo[4,3-a]pyridin-6-yl)oxy)-1,2,3,4-tetrahydronaphthalen-1-yl)urea]: the IC50 in experiment [1] is 1 to 5 nM; on p38 alpha it was less than 1 nM.

With `C[C@H]1CCCCN1c1nnc2ccc(O[C@@H]3CC[C@H](NC(=O)Nc4cc(C(C)(C)C)ncn4)c4ccccc43)cn12` [Example 45, 1-(6-(tert-Butyl)pyrimidin-4-yl)-3-((1S,4R)-4-((3-((S)-2-methylpiperidin-1-yl)-[1,2,4]triazolo[4,3-a]pyridin-6-yl)oxy)-1,2,3,4-tetrahydronaphthalen-1-yl)urea], the results for the IC50 (in experiment [1]; on p38 alpha) were 1 to 5 nM and less than 1 nM, respectively.

For `CN1CCC[C@H]1c1nnc2ccc(O[C@@H]3CC[C@H](NC(=O)Nc4cc(C(C)(C)C)ncn4)c4ccccc43)cn12` [Example 46, 1-(6-(tert-Butyl)pyrimidin-4-yl)-3-((1S,4R)-4-((3-((S)-1-methylpyrrolidin-2-yl)-[1,2,4]triazolo[4,3-a]pyridine-6-yl)oxy)-1,2,3,4-tetrahydronaphthalene-1-yl)urea Hydrochloride], the IC50 in experiment [1] is 1 to 5 nM; at p38 alpha, less than 1 nM.

Turning to `CC(C)N1CCC[C@H]1c1nnc2ccc(O[C@@H]3CC[C@H](NC(=O)Nc4cc(C(C)(C)C)ncn4)c4ccccc43)cn12` [Example 47, 1-(6-(tert-Butyl)pyrimidin-4-yl)-3-((1S,4R)-4-((3-((S)-1-isopropylpyrrolidin-2-yl)-[1,2,4]triazolo[4,3-a]pyridine-6-yl)oxy)-1,2,3,4-tetrahydronaphthalene-1-yl)urea Hydrochloride], the IC50 in experiment [1] was greater than 5 nM; on p38 alpha it was less than 1 nM.

As for `CSc1nc(NC(=O)N[C@H]2CC[C@@H](Oc3ccc4nnc([C@]5(C)CCCN5C)n4c3)c3ccccc32)cc(C(C)(C)C)n1` [Example 49, 1-(6-(tert-Butyl)-2-(methylthio)pyrimidin-4-yl)-3-((1S,4R)-4-((3-((S)-1,2-dimethylpyrrolidin-2-yl)-[1,2,4]triazolo[4,3-a]pyridine-6-yl)oxy)-1,2,3,4-tetrahydronaphthalen-1-yl)urea], the IC50 in experiment [1] is greater than 5 nM; on p38 alpha, 1 to 10 nM.

`Cc1ncc(C(C)(C)C)cc1NC(=O)N[C@H]1CC[C@@H](Oc2ccc3nnc([C@]4(C)CCCN4C)n3c2)c2ccccc21` [Example 50, 1-(5-(tert-Butyl)-2-methylpyridin-3-yl)-3-((1S,4R)-4-((3-((S)-1,2-dimethylpyrrolidin-2-yl)-[1,2,4]triazolo[4,3-a]pyridin-6-yl)oxy)-1,2,3,4-tetrahydronaphthalen-1-yl)urea]: the IC50 (in experiment [1]; on p38 alpha) was less than 1 nM throughout.

For `CN1CCC[C@@]1(C)c1nnc2ccc(O[C@@H]3CC[C@H](NC(=O)Nc4cc(CO)nc(C(C)(C)C)c4)c4ccccc43)cn12` [Example 51, 1-(2-(tert-Butyl)-6-(hydroxymethyl)pyridin-4-yl)-3-((1S,4R)-4-((3-((S)-1,2-dimethylpyrrolidin-2-yl)-[1,2,4]triazolo[4,3-a]pyridin-6-yl)oxy)-1,2,3,4-tetrahydronaphthalen-1-yl)urea], the IC50 (in experiment [1]; on p38 alpha) was less than 1 nM throughout.

Consider `COc1ncc(C(C)(C)C)cc1NC(=O)N[C@H]1CC[C@@H](Oc2ccc3nnc([C@]4(C)CCCN4C)n3c2)c2ccccc21` [Example 52, 1-(5-(tert-Butyl)-2-methoxypyridin-3-yl)-3-((1S,4R)-4-((3-((S)-1,2-dimethylpyrrolidin-2-yl)-[1,2,4]triazolo[4,3-a]pyridin-6-yl)oxy)-1,2,3,4-tetrahydronaphthalen-1-yl)urea], for which the IC50 in experiment [1] was less than 1 nM; on p38 alpha it was 1 to 10 nM.
